Values of other authors, collected in US9399652B2, “Synthetic route to pactamycin and pactamycin analogs” (The University of North Carolina at Chapel Hill, priority 2013, dated 2016).

Conditions: literature value (ref. 11); cell line not given; read-out: cytotoxicity (IC50)

CC(=O)c1cccc(N[C@H]2[C@H](N)[C@@](NC(=O)N(C)C)([C@H](C)O)[C@@](C)(O)[C@@]2(O)COC(=O)c2c(C)cccc2O)c1 [Pactamycin]
IC50: 95 nM
